According to patent US11732264B2, “Compositions and methods for treating COVID-19” (Vast Sea Biotechnology, Inc., priority 2020, dated 2023):
Like-named read-outs stand apart in the source and are kept apart here. d = 2'-deoxy (DNA); r = 2'-OH (RNA)

Assays:
Assay type in all cases: cell-based
SARS-CoV-2 N-protein [1] = conditions: HNEpC, qRT-PCR
SARS-CoV-2 N-protein [2] = conditions: HSAEC, qRT-PCR
SARS-CoV-2 N-protein [3] = conditions: HBTEC, qRT-PCR
[4] = oligos 24-48 hours, lipofectamine or Arginine not stated at the result
[5] = oligos 24-48 hours, with lipofectamine

Substance	down-regulation of SARS-CoV-2 N-protein expression (SARS-CoV-2 N-protein [1]; without any reagents)	down-regulation of SARS-CoV-2 N-protein expression (SARS-CoV-2 N-protein [2]; oligo 24-48 hours, without any reagents)	down-regulation of SARS-CoV-2 N-protein expression (SARS-CoV-2 N-protein [3]; without any reagents)	down-regulation of SARS-CoV-2 N-protein expression (SARS-CoV-2 N-protein [1]; [4])	down-regulation of SARS-CoV-2 N-protein expression (SARS-CoV-2 N-protein [2]; [5])	down-regulation of SARS-CoV-2 N-protein expression (SARS-CoV-2 N-protein [3]; [5])
TGTTAATTGGAACGCCTTGTC (FANA modified, pattern not given here, FITC label) [VS_ASO_1-FANA-FITC]	about 350 fold	about 6 fold	about 8 fold	–	–	–
TGTTAATTGGAACGCCTTGTC (Cy3 label, position not given here) [VS_ASO_2-Cy3]	–	–	–	about 15 fold	about 1.5 fold	about 6 fold
VS_DsiRNA-Cy5: DsiRNA SEQ ID NOs: 23 & 24, target N-protein, Cy5 labeled (chain 1 AAACUAAAAUGUCUGAUAAUGGACC; chain 2 GGUCCAUUAUCAGACAUUUUAGUUUGU; chain 1: sugars from the 5' end r23 d2, backbone not given here; chain 2: chemistry not given here; Cy5 label)	–	–	–	about 90 fold	about 5 fold	about 4 fold
